Consider 16 compounds from patent US9994515B2, “Aryl naphthyl methanone oxime(s) and process for preparation thereof” (Council of Scientific & Industrial Research, priority 2013, dated 2018).

What is called IC50 is the concentration at which inhibition is half-maximal. For orientation: melting point means the temperature, or range, at which the solid turns liquid.

Series [1] deals with HL60. In words: MTT cytotoxicity assay in HL-60 cells. Type of series: cell-based. Conditions: Homo sapiens, HL-60, 48 h, Table 1; MTT assay after 48 h treatment. In general terms: Formazan colour is commonly taken as a measure of viable cells.
The subject of series [2] is NIH3T3. Kind of series: MTT cytotoxicity assay in NIH3T3 fibroblasts. It is filed as cell-based, mouse. Conditions: Mus musculus, NIH3T3, 48 h, Table 1; MTT assay after 48 h treatment. The protocol: To consider a molecule as a candidate compound in cancer drug therapy, the test compound must have specific cytotoxicity towards the cancer cells without affecting normal cell growth. Therefore, all active compounds were assessed for toxicity in non-cancer cell-lines: mouse fibroblast cell line (NIH3T3) and monkey kidney epithelial cells (Vero). […] Therefore, based on safety index ([…]), 5d [Centans; based on IUPAC name prefixed with Central Drug Research Institute's signature (Cent)] was selected as a lead compound.

For series [3], the system named is K562. In words: MTT cytotoxicity assay in K562 cells. It is filed as cell-based. Conditions: Homo sapiens, K562, 48 h, Table 1; MTT assay after 48 h treatment.
Series [4] has as its system Ishikawa. In words: MTT assay in Ishikawa endometrial adenocarcinoma cells. It is filed as cell-based. The settings on record: Table 6, 48 h, 10 point dose response.
Series [5] has as its system DU-145. Kind of series: MTT assay in DU-145 prostate tumor cells. It is filed as cell-based. The settings on record: 10 point dose response.
Series [6] concerns MCF-7. Kind of series: MTT assay in MCF-7 breast tumor cells. Type of series: cell-based. The settings on record: 10 point dose response.
Series [7] relates to MDA-MB231. Kind of series: MTT assay in MDA-MB-231 breast tumor cells. The settings on record: 10 point dose response. It is filed as cell-based.
Setting [8] is: Homo sapiens, DU-145, Table 6, 48 h.
The mark [9] stands for this setting: Homo sapiens, MCF7, Table 6, 48 h.
The mark [10] stands for this setting: Homo sapiens, MDA-MB-231, Table 6, 48 h.

Where a name gives a salt, the structure may show the parent alone.

`CSc1ccc(/C(=N/OCCCN2CCCCC2)c2cccc3ccccc23)cc1` [Compound 7a, (4-(methylthio)phenyl)(naphthalen-1-yl)methanone O-3-(piperidin-1-yl)propyl oxime oxalate]: the IC50 in series [1] was over 50 µM; in series [2], over 50 µM; in series [3] it was over 20 µM; in series [4] (Homo sapiens, Ishikawa), 12 µM; in series [5] (setting [8]), 15 µM; in series [6] (setting [9]), 5 µM. The IC50 in series [7] (setting [10]) was determined as 20 µM.
Regarding `COc1ccc(/C(=N/OCCN(C)C)c2cccc3ccccc23)cc1` [Compound 6c, (4-methoxyphenyl)(naphthalen-1-yl)methanone O-2-(dimethylamino)ethyl oxime oxalate], the IC50 in series [1] is over 50 µM; in series [2], over 50 µM; in series [3], over 50 µM; in series [4] (Homo sapiens, Ishikawa) it was over 50 µM; in series [5] (setting [8]), over 50 µM; in series [6] (setting [9]), 15 µM. The same compound registered an IC50 in series [7] (setting [10]) of over 50 µM.
Take `CSc1ccc(/C(=N/OCCN2CCOCC2)c2cccc3ccccc23)cc1` [Compound 5f, (4-(methylthio)phenyl)(naphthalen-1-yl)methanone O-2-morpholinoethyl oxime]: the IC50 was over 50 µM in series [1]; 26 µM in series [2]; over 25 µM in series [3]; over 50 µM in series [4] (Homo sapiens, Ishikawa); over 50 µM in series [5] (setting [8]); over 50 µM in series [6] (setting [9]). Besides, the IC50 in series [7] (setting [10]) was over 50 µM.
`CSc1ccc(/C(=N/O)c2cccc3ccccc23)cc1` [Compound 4a, (4-(methylthio)phenyl)(naphthalen-1-yl)methanone oxime] returned a melting point of 135 °C. The compound further showed an IC50 in series [1] of over 50 µM. For the same compound, the IC50 in series [2] is over 50 µM. This compound gave an IC50 in series [3] of over 50 µM. The compound also gave an IC50 in series [4] (Homo sapiens, Ishikawa) of over 50 µM. In addition, the IC50 in series [5] (setting [8]) was over 50 µM. In series [6] (setting [9]), this compound gave an IC50 of 18 µM. This compound gave an IC50 in series [7] (setting [10]) of 20 µM.
On to “4-hydroxy-tamoxifen [OH-TAM, reference compound]”, for which the IC50 in series [4] amounted to 20 µM; in series [5] (Table 6, 48 h), 10 µM; in series [6] (Table 6, 48 h), 8.8 µM; in series [7] (Table 6, 48 h), 8 µM.
For `CSc1ccc(/C(=N/OCCCCN2CCCCC2)c2cccc3ccccc23)cc1` [Compound 8a, (4-(methylthio)phenyl)(naphthalen-1-yl)methanone O-4-(piperidin-1-yl)butyl oxime], the IC50 was 16 µM in series [1]; 20 µM in series [2]; 6.34 µM in series [3]; 18 µM in series [4] (Homo sapiens, Ishikawa); 7.5 µM in series [5] (setting [8]); 8 µM in series [6] (setting [9]). Also, it took 18 µM to reach half-maximal inhibition in series [7] (setting [10]) (IC50).
`COc1ccc(/C(=N/O)c2cccc3ccccc23)cc1` [Compound 4b, (4-methoxyphenyl)(naphthalen-1-yl)methanone oxime] had a melting point of 132 °C. This compound also yielded an IC50 in series [1] of over 50 µM. In addition, the IC50 in series [2] was over 50 µM. This compound yielded an IC50 in series [3] of over 50 µM.
As for `COc1ccc(/C(=N/OCCN2CCCCC2)c2cccc3ccccc23)cc1` [Compound 6a, (4-methoxyphenyl)(naphthalen-1-yl)methanone O-2-(piperidin-1-yl)ethyl oxime oxalate], the IC50 was over 50 µM in series [1]; over 50 µM in series [2]; over 50 µM in series [3]; over 50 µM in series [4] (Homo sapiens, Ishikawa); over 50 µM in series [5] (setting [8]); 18 µM in series [6] (setting [9]). This compound displayed an IC50 in series [7] (setting [10]) of over 50 µM.
For `COc1ccc(/C(=N/OCCCN(C)C)c2cccc3ccccc23)cc1` [Compound 6i, (4-methoxyphenyl)(naphthalen-1-yl)methanone O-3-(dimethylamino)propyl oxime oxalate], the IC50 in series [1] is over 50 µM; in series [2], over 50 µM; in series [3], over 50 µM; in series [4] (Homo sapiens, Ishikawa) it was over 50 µM; in series [5] (setting [8]) it was over 50 µM; in series [6] (setting [9]), 20.5 µM. Also, the concentration for half-maximal inhibition (IC50) in series [7] (setting [10]) is over 50 µM.
`CCN(CC)CCO/N=C(/c1ccc(OC)cc1)c1cccc2ccccc12` [Compound 6d, (4-methoxyphenyl)(naphthalen-1-yl)methanone O-2-(diethylamino)ethyl oxime oxalate]: the IC50 in series [1] was over 50 µM; in series [2] it was over 50 µM; in series [3] it was over 50 µM; in series [4] (Homo sapiens, Ishikawa) it was over 50 µM; in series [5] (setting [8]) it was over 50 µM; in series [6] (setting [9]) it was 20 µM. In series [7] (setting [10]), this compound had an IC50 of over 50 µM.
`COc1ccc(/C(=N/OCCN(C(C)C)C(C)C)c2cccc3ccccc23)cc1` [Compound 6e, (4-methoxyphenyl)(naphthalen-1-yl)methanone O-2-(diisopropylamino)ethyl oxime oxalate]: the IC50 is over 50 µM in series [1]; over 50 µM in series [2]; over 50 µM in series [3]; over 50 µM in series [4] (Homo sapiens, Ishikawa); over 50 µM in series [5] (setting [8]); 23 µM in series [6] (setting [9]). In addition, the IC50 in series [7] (setting [10]) is over 50 µM.
As to `CSc1ccc(/C(=N/OCCCN2CCOCC2)c2cccc3ccccc23)cc1` [Compound 7b, (4-(methylthio)phenyl)(naphthalen-1-yl)methanone O-3-morpholinopropyl oxime], the melting point came to 89 °C. For the same compound, in series [1], the IC50 was over 50 µM. The IC50 in series [2] is over 50 µM. Besides, the IC50 in series [3] is over 50 µM. For the same compound, in series [4] (Homo sapiens, Ishikawa), the IC50 is over 50 µM. For the same compound, the IC50 in series [5] (setting [8]) is over 50 µM. Also, the concentration for half-maximal inhibition (IC50) in series [6] (setting [9]) is over 50 µM. The IC50 in series [7] (setting [10]) is over 50 µM.
As to `CSc1ccc(/C(=N/OCCN2CCCC2)c2cccc3ccccc23)cc1` [Compound 5b, (4-(methylthio)phenyl)(naphthalen-1-yl)methanone O-2-(pyrrolidin-1-yl)ethyl oxime oxalate], the IC50 in series [1] stood at 19 µM; in series [2], 20 µM; in series [3] it was 25 µM; in series [4] (Homo sapiens, Ishikawa), 6 µM; in series [5] (setting [8]) it was 9.5 µM; in series [6] (setting [9]) it was 6.6 µM. The 50% inhibitory concentration (IC50) in series [7] (setting [10]) came to 5.01 µM.
On to `CSc1ccc(/C(=N/OCCCCN2CCCC2)c2cccc3ccccc23)cc1` [Compound 8b, (4-(methylthio)phenyl)(naphthalen-1-yl)methanone O-4-(pyrrolidin-1-yl)butyl oxime], for which the IC50 in series [1] was over 50 µM; in series [2], over 50 µM; in series [3], over 50 µM; in series [4] (Homo sapiens, Ishikawa) it was over 50 µM; in series [5] (setting [8]), over 50 µM; in series [6] (setting [9]) it was over 50 µM. For the same compound, in series [7] (setting [10]), the half-inhibitory concentration (IC50) is over 50 µM.
Take `CSc1ccc(/C(=N/OCCN(C)C)c2cccc3ccccc23)cc1` [Compound 5c, (4-(methylthio)phenyl)(naphthalen-1-yl)methanone O-2-(dimethylamino)ethyl oxime oxalate]: the IC50 in series [1] was over 50 µM; in series [2], over 50 µM; in series [3], over 50 µM; in series [4] (Homo sapiens, Ishikawa), 9 µM; in series [5] (setting [8]) it was 15 µM; in series [6] (setting [9]) it was 14 µM. The compound also registered a concentration for half-maximal inhibition (IC50) in series [7] (setting [10]) of 12.8 µM.
`COc1ccc(/C(=N/OCCN2CCCC2)c2cccc3ccccc23)cc1` [Compound 6b, (4-methoxyphenyl)(naphthalen-1-yl)methanone O-2-(pyrrolidin-1-yl)ethyl oxime oxalate]: the IC50 in series [1] is over 50 µM; in series [2], over 50 µM; in series [3] it was over 50 µM; in series [4] (Homo sapiens, Ishikawa) it was over 50 µM; in series [5] (setting [8]), over 50 µM; in series [6] (setting [9]), 25 µM. The compound also gave an IC50 in series [7] (setting [10]) of over 50 µM.
